Test results published in patent EP4707280A1, “1,4-CINEOLE DERIVATIVE AND INTERMEDIATE THEREOF, HERBICIDE CONTAINING SAID DERIVATIVE AS ACTIVE INGREDIENT, METHOD FOR USING HERBICIDE, AND METHOD FOR PREPARING AGROCHEMICAL COMPOSITION” (HOKKO CHEMICAL INDUSTRY CO., LTD., priority 2023, dated 2024).

How the values were obtained:
Type in all cases: in vivo
Echinochloa crus-galli [1] = assay: Test Example 3: herbicidal effect test by soil application in upland field; settings: Echinochloa crus-galli, 120 g per 10 ares, sprayed one day after sowing, 14 days after application, read-out: weed inhibition rate
Outline: (§1)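 Weed inhibition (%) was assessed 14 days after treatment, in duplicate per concentration group. Seeds had been mixed into the upper 1 cm of upland alluvial loam, and the soil surface was sprayed one day later with the diluted emulsifiable concentrate at 120 g active ingredient per 10 ares.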

Digitaria ciliaris [2] = assay: as above; settings: Digitaria ciliaris, 120 g per 10 ares, sprayed one day after sowing, 14 days after application, read-out: weed inhibition rate
Outline: as §1

[3] = tested on: Echinochloa crus-galli var. formosensis; assay: Test Example 5: herbicidal effect test by soil application in paddy rice (low dose); settings: Echinochloa crus-galli, soil, 336 h; 7.5 g per 10 ares; applied immediately after sowing, flooded pots; 14 days after application; read-out: weed inhibition rate
Outline: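 Paddy soil in Wagner pots was fertilized (N:P:K 16:16:16), puddled, sown with 30 seeds per weed species at 0–1 cm, then flooded to ~3 cm in a glass greenhouse. Emulsifiable concentrate diluted in water was dropper-applied into floodwater immediately, at 7.5 g active ingredient per 10 ares; duplicates, scored at 14 days.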

Scirpus juncoides [4] = assay: Test Example 2: herbicidal effect test by application during growth period of paddy rice; settings: Schoenoplectiella juncoides; 120 g per 10 ares; applied seven days after sowing, flooded pots; 14 days after application; read-out: weed inhibition rate
Outline: (§2)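 Paddy soil in Wagner pots was puddled with N:P:K 16:16:16 fertilizer, sown with 30 weed seeds per species at 0–1 cm and flooded to about 3 cm. Seven days after sowing, a water-diluted emulsifiable concentrate was dropped onto the water at 120 g active ingredient per 10 ares. Weed inhibition (%) was scored at 14 days, in duplicate.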

[5] = tested on: Echinochloa crus-galli var. formosensis; assay: as above; settings: Echinochloa crus-galli; 120 g per 10 ares; applied seven days after sowing, flooded pots; 14 days after application; read-out: weed inhibition rate
Outline: as §2

[6] = tested on: Echinochloa crus-galli var. formosensis; assay: Test Example 6: herbicidal effect test by application during growth period of paddy rice (low dose); settings: Echinochloa crus-galli; 7.5 g per 10 ares; applied seven days after sowing, flooded pots; 14 days after application; read-out: weed inhibition rate
Outline: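 Puddled, fertilised paddy soil was sown with 30 seeds per species and flooded to about 3 cm. After 7 days in a glass greenhouse, the diluted emulsifiable concentrate went into the water by dropper at 7.5 g/10 a. Effect scored at 14 days.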

Scirpus juncoides [7] = assay: Test Example 1: herbicidal effect test by soil application in paddy rice; settings: Schoenoplectiella juncoides, soil, 336 h; 120 g active ingredient per 10 ares; applied immediately after sowing, flooded pots; 14 days after application; read-out: weed inhibition rate
Outline: (§3)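 Pre-emergence paddy treatment: diluted emulsifiable concentrate applied by dropper at 120 g a.i./10 ares immediately after sowing. Seeds (30 per species, 0–1 cm deep) in fertilized, puddled paddy soil kept under ~3 cm flood in a glass greenhouse.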

[8] = tested on: Echinochloa crus-galli var. formosensis; assay: as above; settings: Echinochloa crus-galli, soil, 336 h; 120 g active ingredient per 10 ares; applied immediately after sowing, flooded pots; 14 days after application; read-out: weed inhibition rate
Outline: as §3

Digitaria ciliaris [9] = assay: Test Example 4: herbicidal effect test by stem and leaf treatment in upland field; settings: Digitaria ciliaris; 120 g per 10 ares; sprayed seven days after sowing, upland soil; 14 days after application; read-out: weed inhibition rate
Echinochloa crus-galli [10] = assay: Test Example 8: herbicidal effect test by stem and leaf treatment in upland field (low dose); settings: Echinochloa crus-galli; 7.5 g per 10 ares; sprayed seven days after sowing, upland soil; 14 days after application; read-out: weed inhibition rate
Digitaria ciliaris [11] = assay: as above; settings: Digitaria ciliaris; 7.5 g per 10 ares; sprayed seven days after sowing, upland soil; 14 days after application; read-out: weed inhibition rate
Echinochloa crus-galli [12] = assay: Test Example 7: herbicidal effect test by soil application in upland field (low dose); settings: Echinochloa crus-galli, 7.5 g per 10 ares, sprayed one day after sowing, 14 days after application, read-out: weed inhibition rate
Outline: (§4)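 Pre-emergence soil application: upland alluvial loam pots sown with weed seeds mixed into the top 1 cm; one day after sowing, a water-diluted emulsifiable concentrate was sprayed on the soil at 100 L per 10 a, delivering 7.5 g active ingredient per 10 a. Weed inhibition rate (%) scored 14 days after application, duplicate pots.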

Digitaria ciliaris [13] = assay: as above; settings: Digitaria ciliaris, 7.5 g per 10 ares, sprayed one day after sowing, 14 days after application, read-out: weed inhibition rate
Outline: as §4

Echinochloa crus-galli [14] = assay: Test Example 4: herbicidal effect test by stem and leaf treatment in upland field; settings: Echinochloa crus-galli; 120 g per 10 ares; sprayed seven days after sowing, upland soil; 14 days after application; read-out: weed inhibition rate

CC(C)=CCOC1CC2(C(C)C)OC1(C)CC2I (stereo not shown) [1-1400, 5-iodo-1-methyl-2-(3-methylbut-2-enoxy)-4-isopropyl-7-oxabicyclo[2.2.1]heptane]
≥ 80%: inhibition at 1200 g/ha (Echinochloa crus-galli [1]) | inhibition at 1200 g/ha (Digitaria ciliaris [2]) | inhibition at 75 g/ha [3] | inhibition at 1200 g/ha (Scirpus juncoides [4]) | inhibition at 1200 g/ha [5] | inhibition at 75 g/ha [6] | pest or weed control at 1200 g/ha (Scirpus juncoides [7]) | pest or weed control at 1200 g/ha [8] | inhibition at 1200 g/ha (Digitaria ciliaris [9]) | inhibition at 75 g/ha (Echinochloa crus-galli [10]) | inhibition at 75 g/ha (Digitaria ciliaris [11]) | inhibition at 75 g/ha (Echinochloa crus-galli [12]) | inhibition at 75 g/ha (Digitaria ciliaris [13]) | inhibition at 1200 g/ha (Echinochloa crus-galli [14])

CC#CCOC1CC2(C(C)C)OC1(C)CC2I (stereo not shown) [1-1402, 5-but-2-ynoxy-2-iodo-1-isopropyl-4-methyl-7-oxabicyclo[2.2.1]heptane]
≥ 80%: inhibition at 1200 g/ha (Echinochloa crus-galli [1]) | inhibition at 1200 g/ha (Digitaria ciliaris [2]) | inhibition at 75 g/ha [3] | inhibition at 1200 g/ha (Scirpus juncoides [4]) | inhibition at 1200 g/ha [5] | inhibition at 75 g/ha [6] | pest or weed control at 1200 g/ha (Scirpus juncoides [7]) | pest or weed control at 1200 g/ha [8] | inhibition at 1200 g/ha (Digitaria ciliaris [9]) | inhibition at 75 g/ha (Echinochloa crus-galli [10]) | inhibition at 75 g/ha (Digitaria ciliaris [11]) | inhibition at 75 g/ha (Echinochloa crus-galli [12]) | inhibition at 75 g/ha (Digitaria ciliaris [13]) | inhibition at 1200 g/ha (Echinochloa crus-galli [14])

CC(C)C12CC(OCc3ccccc3)C(C)(CC1I)O2 (stereo not shown) [1-1408, 5-iodo-1-methyl-2-phenylmethoxy-4-isopropyl-7-oxabicyclo[2.2.1]heptane]
≥ 80%: inhibition at 1200 g/ha (Echinochloa crus-galli [1]) | inhibition at 1200 g/ha (Digitaria ciliaris [2]) | inhibition at 75 g/ha [3] | inhibition at 1200 g/ha (Scirpus juncoides [4]) | inhibition at 1200 g/ha [5] | inhibition at 75 g/ha [6] | pest or weed control at 1200 g/ha (Scirpus juncoides [7]) | pest or weed control at 1200 g/ha [8] | inhibition at 1200 g/ha (Digitaria ciliaris [9]) | inhibition at 75 g/ha (Echinochloa crus-galli [10]) | inhibition at 75 g/ha (Digitaria ciliaris [11]) | inhibition at 75 g/ha (Echinochloa crus-galli [12]) | inhibition at 75 g/ha (Digitaria ciliaris [13]) | inhibition at 1200 g/ha (Echinochloa crus-galli [14])

Cc1ccccc1COC1CC2(C(C)C)OC1(C)CC2I (stereo not shown) [1-1409, 5-iodo-1-methyl-2-[(2-methylphenyl)methoxy]-4-isopropyl-7-oxabicyclo[2.2.1]heptane]
≥ 80%: inhibition at 1200 g/ha (Echinochloa crus-galli [1]) | inhibition at 1200 g/ha (Digitaria ciliaris [2]) | inhibition at 75 g/ha [3] | inhibition at 1200 g/ha (Scirpus juncoides [4]) | inhibition at 1200 g/ha [5] | inhibition at 75 g/ha [6] | pest or weed control at 1200 g/ha (Scirpus juncoides [7]) | pest or weed control at 1200 g/ha [8] | inhibition at 1200 g/ha (Digitaria ciliaris [9]) | inhibition at 75 g/ha (Echinochloa crus-galli [10]) | inhibition at 75 g/ha (Digitaria ciliaris [11]) | inhibition at 75 g/ha (Echinochloa crus-galli [12]) | inhibition at 75 g/ha (Digitaria ciliaris [13]) | inhibition at 1200 g/ha (Echinochloa crus-galli [14])

COc1ccccc1COC1CC2(C(C)C)OC1(C)CC2I (stereo not shown) [1-1415, 5-iodo-2-[(2-methoxyphenyl)methoxy]-1-methyl-4-isopropyl-7-oxabicyclo[2.2.1]heptane]
≥ 80%: inhibition at 1200 g/ha (Echinochloa crus-galli [1]) | inhibition at 1200 g/ha (Digitaria ciliaris [2]) | inhibition at 75 g/ha [3] | inhibition at 1200 g/ha (Scirpus juncoides [4]) | inhibition at 1200 g/ha [5] | inhibition at 75 g/ha [6] | pest or weed control at 1200 g/ha (Scirpus juncoides [7]) | pest or weed control at 1200 g/ha [8] | inhibition at 1200 g/ha (Digitaria ciliaris [9]) | inhibition at 75 g/ha (Echinochloa crus-galli [10]) | inhibition at 75 g/ha (Digitaria ciliaris [11]) | inhibition at 75 g/ha (Echinochloa crus-galli [12]) | inhibition at 75 g/ha (Digitaria ciliaris [13]) | inhibition at 1200 g/ha (Echinochloa crus-galli [14])
